Results published in publication PMC4932537, “Search for Potent and Selective Aurora A Inhibitors Based on General Ser/Thr Kinase Pharmacophore Model” (Pharmaceuticals, 2016).
Where a name gives a salt, the structure may show the parent alone.

Experiments:
[1] = target: T1, Aurora A (Homo sapiens, UniProt O14965); test: Aurora A kinase inhibition (biochemical assay); settings: Table 1; read-out: Aurora A, IC50
T1 sequence (O14965 1-403): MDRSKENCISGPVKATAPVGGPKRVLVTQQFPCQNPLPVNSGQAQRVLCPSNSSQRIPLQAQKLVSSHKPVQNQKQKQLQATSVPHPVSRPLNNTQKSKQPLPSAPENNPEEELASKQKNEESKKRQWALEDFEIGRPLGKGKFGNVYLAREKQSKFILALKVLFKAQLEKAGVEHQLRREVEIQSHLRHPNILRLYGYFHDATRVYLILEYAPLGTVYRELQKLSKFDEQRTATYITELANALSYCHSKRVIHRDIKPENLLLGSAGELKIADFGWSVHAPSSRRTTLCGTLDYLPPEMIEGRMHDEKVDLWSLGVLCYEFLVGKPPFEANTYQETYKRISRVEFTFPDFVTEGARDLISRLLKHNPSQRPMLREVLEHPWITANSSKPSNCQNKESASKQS

[2] = target: T2, Haspin (Homo sapiens, UniProt Q8TF76); test: Haspin kinase inhibition; assay type: biochemical; settings: Table 1
T2 sequence (Q8TF76 1-798): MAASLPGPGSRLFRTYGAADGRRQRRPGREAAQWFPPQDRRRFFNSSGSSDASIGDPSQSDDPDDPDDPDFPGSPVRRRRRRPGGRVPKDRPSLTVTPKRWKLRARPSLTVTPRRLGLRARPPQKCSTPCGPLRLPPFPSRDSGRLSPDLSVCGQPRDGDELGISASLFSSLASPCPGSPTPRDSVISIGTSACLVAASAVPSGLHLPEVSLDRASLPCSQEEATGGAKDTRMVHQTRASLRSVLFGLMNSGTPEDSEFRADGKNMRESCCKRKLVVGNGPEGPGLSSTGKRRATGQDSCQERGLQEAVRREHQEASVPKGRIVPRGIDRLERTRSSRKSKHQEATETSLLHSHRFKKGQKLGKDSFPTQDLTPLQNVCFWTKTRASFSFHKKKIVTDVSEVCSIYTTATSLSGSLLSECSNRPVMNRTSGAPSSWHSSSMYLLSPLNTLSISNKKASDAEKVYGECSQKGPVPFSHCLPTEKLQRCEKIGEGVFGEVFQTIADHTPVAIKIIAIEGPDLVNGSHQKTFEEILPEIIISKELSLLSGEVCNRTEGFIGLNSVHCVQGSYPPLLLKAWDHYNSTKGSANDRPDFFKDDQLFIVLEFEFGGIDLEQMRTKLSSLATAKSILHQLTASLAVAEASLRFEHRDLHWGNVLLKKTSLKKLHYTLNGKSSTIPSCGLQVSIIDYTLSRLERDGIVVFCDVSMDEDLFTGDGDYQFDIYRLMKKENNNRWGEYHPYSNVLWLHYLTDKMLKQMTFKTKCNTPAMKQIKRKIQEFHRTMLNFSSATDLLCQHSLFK
Source text: Table 1 Activity of compounds fitting to general pharmacophore model against selected Ser/Thr kinases. | column: Haspin, IC50, μM

[3] = target: Aurora B (Homo sapiens, UniProt Q96GD4); test: Aurora B kinase inhibition; assay type: biochemical; settings: Table 1
Chain of Aurora B (Q96GD4 whole entry): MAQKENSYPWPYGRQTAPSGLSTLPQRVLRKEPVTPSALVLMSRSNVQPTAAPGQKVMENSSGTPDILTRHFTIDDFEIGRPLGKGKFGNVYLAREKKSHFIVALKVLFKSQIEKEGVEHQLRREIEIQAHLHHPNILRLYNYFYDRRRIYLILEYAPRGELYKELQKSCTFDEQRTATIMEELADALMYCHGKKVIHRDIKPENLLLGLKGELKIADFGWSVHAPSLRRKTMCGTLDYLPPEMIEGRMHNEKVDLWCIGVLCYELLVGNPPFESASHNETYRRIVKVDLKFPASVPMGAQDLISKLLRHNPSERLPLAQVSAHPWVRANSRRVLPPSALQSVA

SMILES	IC50 [1] [µM]	IC50 [2] [µM]	IC50 [3] [µM]
CCCc1cnc(Nc2cccc(C3CCN(C(=O)CN(C)C)CC3)n2)s1 [Compound 3, 2-(Dimethylamino)-1-(4-(6-(5-propylthiazol-2-ylamino)pyridin2-yl)piperidin-1-yl)ethanone]	1.95 ± 0.22	7.06 ± 0.68	1.76 ± 0.16
CCCc1cnc(Nc2cccc(C3CCN(C(=O)CNC)CC3)n2)s1 [Compound 5, 2-(Methylamino)-1-(4-(6-(5-propylthiazol-2-ylamino)pyridin-2-yl)piperidin-1-yl)ethanone]	1.44 ± 0.13	0.43 ± 0.034	0.91 ± 0.08
CC(C)(N)C(=O)N1CCC(c2cccc(Nc3ncc(-c4ccccc4)s3)n2)CC1 [Compound 9, 2-Amino-2-methyl-1-(4-(6-(5-phenylthiazol-2-ylamino)pyridine-2-yl)propan-1-one hydrochloride]	3.17 ± 0.33	0.27 ± 0.019	8.02 ± 0.8
O=C(C1CNCCO1)N1CCC(c2cccc(Nc3ncc(-c4ccccc4)s3)n2)CC1 (stereo not drawn) [Compound 10, Morpholin-2-yl(4-(6-(5-phenylthiazol-2-ylamino)pyridin-2-yl)piperidin-1-yl)methanone]	8.38 ± 0.84	7.8 ± 0.81	0.84 ± 0.09

Next, values leading:

IC50 [1] [µM]	IC50 [2] [µM]	IC50 [3] [µM]	SMILES
2.06 ± 0.15	1.49 ± 0.15	1.45 ± 0.17	CCCc1cnc(Nc2cccc(C3CCN(C(=O)C(C)(C)N)CC3)n2)s1 [Compound 1, 2-Amino-2-methyl-1-(4-(6-(5-propylthiazole-2-ylamino)pyridin-2-yl)piperidin-1-yl)propan-1-one hydrochloride]
2.08 ± 0.25	0.08 ± 0.008	1.72 ± 0.19	CCCc1cnc(Nc2cccc(C3CCN(C(=O)CN)CC3)n2)s1 [Compound 4, 2-Amino-1-(4-(6-(5-propylthiazol-2-ylamino)pyridin-2-yl)piperidin-1-yl)ethanone]
1.67 ± 0.17	1.12 ± 0.11	1.75 ± 0.18	CCCc1cnc(Nc2cccc(C3CCN(C(=O)[C@@H](C)N)CC3)n2)s1 [Compound 6, (R)-2-Amino-1-(4-(6-(5-propylthiazol-2-ylamino)-pyridin-2-yl)piperidin-1-yl)propan-1-one]
2.79 ± 0.3	3.67 ± 0.37	2.25 ± 0.23	CCCc1cnc(Nc2cc(C(C)C)nc(C3CCN(C(=O)C(C)(C)N)CC3)n2)s1 [Compound 7, 2-Amino-1-(4-(4-isopropyl-6-(5-propylthiazol-2-ylamino)pyrimidin-2-yl)piperidin-1-yl)-2-methylpropan-1-one]
3.58 ± 0.43	2.9 ± 0.43	2.05 ± 0.24	CCCc1cnc(Nc2cc(CC)nc(C3CCN(C(=O)C(C)(C)N)CC3)n2)s1 [Compound 8, 2-Amino-1-(4-(4-ethyl-6-(5-propylthiazol-2-ylamino)pyrimidin-2-yl)piperidin-1-yl)-2-methylpropan-1-one]
